The values below come from patent US20100168054A1, “Functionalized Beta 1,6 Glucosamine Disaccharides and Process for Their Preparation” (OM PHARMA, priority 2006, published 2010).

Holding throughout (format): in vivo, BALB/c ByJ mice
The test system of experiment [1] is LACK-sensitized and challenged mice. Description: LACK-induced asthma model: eosinophils in bronchoalveolar lavages. The settings on record: for Eosino × 10^6, Mean ± SEM / Eosino × 10^6, individual mice: BAL; for Eosino × 10^6, individual mice: 1 mg/kg. As to the method:
(§1) An example in vivo of the biological activity of two representative compounds of the invention is presented here. Using a mouse model of allergic asthma previously published (described in Julia et al. Immunity. 2002 February; 16(2):271-83), we aimed to investigate whether i.p. administrations of the synthetic molecules OM-174-DP and OM-174-MP-PD would inhibit airway inflammation in LACK-sensitized and challenged mice. To this goal, mice were treated either all along asthma induction (prophylactic model) or therapeutically (i.e. three times after animals have been sensitized to the allergen, the protein LACK). As read-outs, eosinophils were enumerated in bronchoalveolar lavages (BAL), and the well known markers of allergic asthma, namely the Th2 cytokines IL-4, IL-5, and IL-13 were quantified from the lungs. Moreover the level of plasmatic IgE was also reported.
(§2) OM-174-DP (i.p.)-treated LACK-sensitized and challenged mice (6 mice) Treatment and Schedule with Test or Control Article Experiment started at day 0. On days 0, 2, 3, 4, 7, 9, 10 11, and 12, mice of groups C, and D were treated i.p. with synthetic OM-174-DP (compound 1b) and OM-174-MP-PD (compound 19) respectively at the dose of 1 mg/Kg (20 μg per mouse). Mice of groups E were treated therapeutically i.p. on days 15, 17 and 19 at the dose of 1 mg/Kg (20 μg per mouse).
(§3) On day 1 and day 8, mice were sensitized i.p. with LACK/Alum. From day 16 to day 20, all the groups except group A mice were challenged with aerosols of a solution of LACK (0.15%). Group A received a saline solution (NaCl 0.9%) (group A) for 40 minutes instead.
For all the animals, Broncho-alveolar lavages (BAL) were performed. Two days after the last aerosol challenge, mice were bled and a canula was inserted into their trachea. Lungs were washed 3 times with 1 ml of warmed PBS. Cells were washed with PBS, and red blood cells were lysed using a red blood cell lysis buffer. Cells were further washed in PBS and counted. For differential BAL cell counts, cytospin preparations were made and stained with Wright/Giemsa. At least 400 cells were scored for each slide, and the numbers of lymphocytes, neutrophils, eosinophils, and macrophages/DC/pneumocytes (scored as other mononuclear cells) were determined by microscopic examination. Only eosinophilia is reported here.

Experiment [2] has the same test system. In words: LACK-induced asthma model: LACK-specific IgE in sera. The settings on record: therapeutic. As to the method: as §1, §2, §3
To analyze specific IgE contents, mice of groups A, B, and G were bled by heart puncture two days after the last aerosol, and sera were prepared. LACK-specific IgE were measured by ELISA.

Experiment [3] has the same test system. Description: LACK-induced asthma model: pulmonary cytokines. The method, then: as §1, §2, §3
To analyze pulmonary cytokine contents, lungs were harvested and left lungs were used to prepare protein extracts. 400 μl were recovered for each left lung. Cytokines (IL-4 and IL-13 in a first series of analyses, and then IL-5 and IFN-γ) were measured by multiplex analysis using FACSArray. The results, normalized for the protein content, are presented in pg/ml.

The mark [4] stands for this setting: prophylactic, i.p. 1 mg/Kg on days 0, 2, 3, 4, 7, 9, 10, 11, 12.
Setting [5] is: therapeutic, i.p. 1 mg/Kg on days 15, 17, 19.
The mark [6] stands for this setting: prophylactic, i.p. 1 mg/Kg, 1 mg/kg.
The mark [7] stands for this setting: therapeutic, i.p. 1 mg/Kg on days 15, 17, 19, 1 mg/kg.

Several values for one entry are separate records, joined by “and”; a condition that tells them apart may be missing. Equal entries are not always repeated. Marks after values point to notes of the source that are not given here.

`CCCCCCCCCCCC(=O)O[C@H](CCCCCCCCCCC)CC(=O)NC1C(OCC2OC(OP(=O)(O)O)C(NC(=O)C[C@H](O)CCCCCCCCCCC)C(O)C2O)OC(CO)C(OP(=O)(O)O)C1O` (stereo partly drawn) [compound 1b, 2-Deoxy-6-O-[2-deoxy-4-O-(dihydroxyphosphoryl)-2-[(R)-3-dodecanoyloxytetradecanoylamino]-β-D-glucopyranosyl]-2-[(R)-3-hydroxytetradecanoylamino]-α-D-glucopyranosyl dihydrogenophosphate]: in experiment [1] (setting [4]), the “Eosino × 10^6, Mean ± SEM” value is reported as 109781 ± 139453 × 10^6; the “Eosino × 10^6, individual mice” value is 75359 × 10^6 and 385612 × 10^6 and 33412 × 10^6 and 54158 × 10^6 and 105352 × 10^6 and 4792 × 10^6. Besides, in experiment [1] (setting [5]), the “Eosino × 10^6, Mean ± SEM” value is 13923 ± 7362 × 10^6; the “Eosino × 10^6, individual mice” value was 16744 × 10^6 and 3802 × 10^6 and 7411 × 10^6 and 21739 × 10^6 and 12500 × 10^6 and 21343 × 10^6. Moreover, the “times less BAL eosinophilia compared to positive asthmatic group (B)” value in experiment [1] (prophylactic) is on record as “about 8 times”. Also, the “factor of decrease of eosinophil count compared to group B” value in experiment [1] (therapeutic, three times) worked out at 64. For the same compound, the “Mean IgE” value in experiment [2] (sera, i.p. 1 mg/Kg on days 15, 17, 19) is 224.56* ng/ml. The “LACK-specific IgE, individual mice” value in experiment [2] (sera, i.p. 1 mg/Kg on days 15, 17, 19, 1 mg/kg) was 188 ng/mL and 159 ng/mL and 94 ng/mL and 382 ng/mL and 395 ng/mL and 129 ng/mL. Also, the “fold less LACK-specific IgE compared to untreated LACK challenged mice” value in experiment [2] worked out at 2.6 fold. In addition, in experiment [3] (prophylactic), the “fold decrease of IL-4 in lungs compared to group B” value is 6 fold and the “fold reduction of IL-13 compared to asthmatic mice” value was found to be 4 fold. In experiment [3] (prophylactic, i.p. 1 mg/Kg), the “Mean IL13” value is 13.40* pg/ml and the “Mean IL-4” value is reported as 1.50** pg/ml. Besides, in experiment [3] (setting [6]), the “IL13 in lungs, individual mice” value was 8.39 pg/mL and 25.39 pg/mL and 8.2 pg/mL and 24.29 pg/mL and 12.52 pg/mL and 1.59 pg/mL; the “IL-4 in lungs, individual mice” value was 1.1 pg/mL and 3.33 pg/mL and 0.71 pg/mL and 2.43 pg/mL and 1.23 pg/mL and 0.17 pg/mL. In experiment [3] (therapeutic), the “fold reduction in IL-4 compared to group B” value is on record as 4 fold, the “fold reduction in IL-13 compared to group B” value was 3 fold, the “fold reduction of IL-5 compared to untreated mice” value worked out at 2.8 fold and the “reduction of IFN-γ levels compared to group B (in words)” value is given as “reduced twofold”. For the same compound, in experiment [3] (setting [5]), the “Mean IFN-γ” value is reported as 1.38* pg/ml, the “Mean IL13” value was 17.90* pg/ml, the “Mean IL-4” value is 2.33** pg/ml and the “Mean IL-5” value is 6.00** pg/ml. Further, in experiment [3] (setting [7]), the “IFN-γ in lungs, individual mice” value was 1.62 pg/mL and 0.88 pg/mL and 0.94 pg/mL and 2.2 pg/mL and 0.81 pg/mL and 1.8 pg/mL; the “IL13 in lungs, individual mice” value was 20.35 pg/mL and 5.43 pg/mL and 9.93 pg/mL and 23.68 pg/mL and 21.99 pg/mL and 26.02 pg/mL; the “IL-4 in lungs, individual mice” value was 2.5 pg/ml and 1 pg/ml and 1.58 pg/ml and 3.48 pg/ml (2×) and 1.94 pg/ml; the “IL-5 in lungs, individual mice” value was 7.41 pg/mL and 1.06 pg/mL and 2.15 pg/mL and 9.23 pg/mL and 5.81 pg/mL and 10.33 pg/mL.

`CCCCCCCCCCCC(=O)O[C@H](CCCCCCCCCCC)CC(=O)N[C@H]1[C@H](OC[C@H]2O[C@H](OCC(O)CO)[C@H](NC(=O)C[C@H](O)CCCCCCCCCCC)[C@@H](O)[C@@H]2O)O[C@H](CO)[C@@H](OP(=O)(O)O)[C@@H]1O` (stereo partly drawn) [compound 19, 2,3-Dihydroxypropyl-2-Deoxy-6-O-[2-deoxy-4-O-(dihydroxyphosphoryl)-2-[(R)-3-dodecanoyloxytetradecanoylamino]-β-D-glucopyranosyl]-2-[(R)-3-hydroxytetradecanoylamino]-α-D-glucopyranoside]: in experiment [1] (setting [4]), the “Eosino × 10^6, Mean ± SEM” value is on record as 100411 ± 80738 × 10^6; the “Eosino × 10^6, individual mice” value is 33286 × 10^6 and 64010 × 10^6 and 47018 × 10^6 and 252294 × 10^6 and 82555 × 10^6 and 123305 × 10^6. The “times less BAL eosinophilia compared to positive asthmatic group (B)” value in experiment [1] (prophylactic) was “about 8 times”. Besides, in experiment [3] (prophylactic), the “fold decrease of IL-4 in lungs compared to group B” value stood at 4 fold and the “fold reduction of IL-13 compared to asthmatic mice” value was found to be 3 fold. In experiment [3] (prophylactic, i.p. 1 mg/Kg), the “Mean IL13” value is reported as 16.62* pg/ml and the “Mean IL-4” value was 2.09** pg/ml. In experiment [3] (setting [6]), the “IL13 in lungs, individual mice” value was 12.08 pg/mL and 17.1 pg/mL and 8.59 pg/mL and 30.6 pg/mL and 16.14 pg/mL and 15.21 pg/mL; the “IL-4 in lungs, individual mice” value was 1.01 pg/mL and 1.47 pg/mL and 0.91 pg/mL and 5.68 pg/mL and 1.79 pg/mL and 1.66 pg/mL.
